One experiment deals with Adenosine receptor A2a (Homo sapiens, UniProt P29274). Kind of experiment: Displacement of [3H]ZM-241385 from recombinant human adenosine A2A receptor expressed in HeLa cells at 0.1 uM. A general note: In a radioligand displacement assay an active substance lowers the binding of a labelled ligand.
In experiment [1] the target is T1, Adenosine receptor A2b (Homo sapiens) (UniProt P29275).
T1 sequence (whole entry): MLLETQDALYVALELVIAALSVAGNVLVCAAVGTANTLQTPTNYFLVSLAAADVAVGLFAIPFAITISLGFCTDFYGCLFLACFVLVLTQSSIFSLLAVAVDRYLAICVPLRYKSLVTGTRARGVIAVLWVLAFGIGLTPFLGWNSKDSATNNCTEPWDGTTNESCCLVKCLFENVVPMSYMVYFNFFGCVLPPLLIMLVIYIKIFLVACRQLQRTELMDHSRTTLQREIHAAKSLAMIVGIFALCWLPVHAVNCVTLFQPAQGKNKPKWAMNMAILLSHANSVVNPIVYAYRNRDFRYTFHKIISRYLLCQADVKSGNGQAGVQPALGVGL
The experiment in a line: Displacement of [3H]DPCPX from recombinant human adenosine A2B receptor expressed in HEK293 cells at 0.1 uM. It counts as cell-based.

For the next experiment, the target named is T2, Adenosine receptor A2b (Homo sapiens, UniProt P29275).
T2 sequence (P29275 whole entry): T1 sequence (whole entry)

The target in experiment [2] is T1, Adenosine receptor A2b (Homo sapiens). The experiment in a line: Displacement of [3H]DPCPX from recombinant human adenosine A2B receptor expressed in HEK293 cells at 0.01 uM.

As usually defined, the inhibition is how much of the control response was suppressed. A word on the Ki: it is the equilibrium dissociation constant of an inhibitor or competing ligand from its target. A low value points to higher affinity.

Chain of Adenosine receptor A2a (P29274 whole entry): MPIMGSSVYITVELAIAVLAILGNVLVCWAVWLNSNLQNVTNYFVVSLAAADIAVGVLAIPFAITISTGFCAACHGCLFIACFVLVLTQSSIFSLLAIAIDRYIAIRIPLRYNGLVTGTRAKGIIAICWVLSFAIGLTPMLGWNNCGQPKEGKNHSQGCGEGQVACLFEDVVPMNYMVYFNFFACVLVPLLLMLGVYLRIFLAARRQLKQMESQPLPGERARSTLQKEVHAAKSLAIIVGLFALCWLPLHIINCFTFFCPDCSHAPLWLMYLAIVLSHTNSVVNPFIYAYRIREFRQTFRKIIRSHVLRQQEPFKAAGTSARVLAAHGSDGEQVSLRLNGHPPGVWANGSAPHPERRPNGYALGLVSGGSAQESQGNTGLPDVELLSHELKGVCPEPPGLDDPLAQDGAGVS

With `CCOC(=O)COc1ccc(-c2cc3c([nH]2)c(=O)n(C)c(=O)n3C)c(OC)c1`, the inhibition is 11% at Adenosine receptor A2a and 10% in experiment [1]. Also, at Adenosine receptor A2b, the Ki is 2190 nM.
As to `CCCn1c(=O)c2[nH]c(-c3ccc(OCC(=O)Nc4ccc(C(=O)c5ccccc5)cc4)cc3)cc2n(CCC)c1=O`, the inhibition at Adenosine receptor A2a worked out at 13%; in experiment [2] it was 11%; in experiment [1], 51%. At Adenosine receptor A2b, this compound showed a Ki of 77.6 nM.
As for `CCCn1c(=O)c2[nH]c(-c3ccc(OCC(=O)Nc4ccc(S(N)(=O)=O)cc4)cc3)cc2n(CCC)c1=O`, the results for the inhibition (at Adenosine receptor A2a; in experiment [2]; in experiment [1]) were 37%, 10% and 53%, respectively. Further, the Ki on Adenosine receptor A2b is 200 nM.
For `CCCn1c(=O)c2[nH]c(-c3ccc(OCC(=O)Nc4ccc(C)cc4)cc3)cc2n(CCC)c1=O` the same measures were 44%, 27%, 81% and 14.1 nM.
For `Cn1c(=O)c2[nH]c(-c3ccc(OCC(=O)Nc4nc5ccccc5[nH]4)cc3)cc2n(C)c1=O` the same measures were 34%, 24%, 80% and 20 nM.
With `COc1cc(OCC(=O)O)ccc1-c1cc2c([nH]1)c(=O)n(C)c(=O)n2C`, the values for the inhibition (on Adenosine receptor A2a; in experiment [1]) were 1% and 3%, respectively. The compound further had a Ki on Adenosine receptor A2b of 1550 nM.
On to `CCCn1c(=O)c2[nH]c(-c3ccc(OCC(=O)Nc4ccc(CC(=O)OCC)cc4)cc3)cc2n(C)c1=O`, for which the inhibition is 0% at Adenosine receptor A2a, 10% in experiment [2] and 35% in experiment [1]. Also, at Adenosine receptor A2b, the affinity corresponds to a Ki of 132 nM.
For `CC(=O)c1ccc(NC(=O)COc2ccc(-c3cc4c([nH]3)c(=O)n(C)c(=O)n4C)cc2)cc1` the same measures were 36%, 65%, 91% and 3.55 nM.
The matching figures for `CCCn1c(=O)c2[nH]c(-c3ccc(OCC(=O)Nc4ccc(C(C)=O)cc4)cc3)cc2n(CCC)c1=O`: 15%, 24%, 62% and 20 nM.
For `CC(Oc1ccc(-c2cc3c([nH]2)c(=O)n(C)c(=O)n3C)cc1)C(=O)Nc1ccc(F)cc1` (stereo unspecified) the same measures were 70%, 76%, 99% and 3.89 nM.
With `CCCn1c(=O)c2[nH]c(-c3ccc(OC(C(=O)Nc4ccccc4)c4ccccc4)cc3)cc2n(CCC)c1=O` (stereo unspecified), the inhibition at Adenosine receptor A2a stood at 75%; in experiment [2], 44%; in experiment [1], 89%.
For `CCCn1c(=O)n(C)c(=O)c2[nH]c(-c3ccc(OCC(=O)Nc4ccc5c(c4)CCC5=O)cc3)cc21` the same measures were 26%, 12% and 50%.
The matching figures for `CCCn1c(=O)c2[nH]c(-c3ccc(OCC(=O)Nc4ccc(F)cc4O)cc3)cc2n(CCC)c1=O`: 80%, 23% and 88%.
With `CCCn1c(=O)c2[nH]c(-c3ccc(OCC(=O)Nc4cccc(C)n4)cc3)cc2n(CCC)c1=O`, the inhibition at Adenosine receptor A2a is 45%; in experiment [2], 20%; in experiment [1] it was 68%.
As to `CCCn1c(=O)n(C)c(=O)c2[nH]c(-c3ccc(OCC(=O)N(C)Cc4ccccc4)cc3)cc21`, the inhibition at Adenosine receptor A2a amounted to 15%; in experiment [2], 15%; in experiment [1], 32%.
For the compound `CCCn1c(=O)c2[nH]c(-c3ccc(OCC(=O)NCc4ccncc4)cc3)cc2n(C)c1=O`, the inhibition at Adenosine receptor A2a came out at 3%; in experiment [2], 27%; in experiment [1] it was 49%.
For `O=C(COc1ccc(-c2cc3c([nH]2)c(=O)n(CC(F)(F)F)c(=O)n3CC(F)(F)F)cc1)Nc1ccc(Br)cc1` the same measures were 11%, 29% and 79%.
As to `CCCn1c(=O)c2[nH]c(-c3ccc(OCC(=O)Nc4cc(C)ccn4)cc3)cc2n(CCC)c1=O`, the inhibition at Adenosine receptor A2a came to 34%; in experiment [2], 25%; in experiment [1], 60%.
`CCCn1c(=O)c2[nH]c(-c3ccc(OCC(=O)NC(C(=O)O)c4ccccc4)cc3)cc2n(CCC)c1=O` (stereo unspecified): the figures for the inhibition (on Adenosine receptor A2a; in experiment [2]; in experiment [1]) were 3%, 38% and 45%, respectively.
The matching figures for `CCCn1c(=O)c2nc(-c3ccc(OCC(N)=O)cc3)[nH]c2n(CCC)c1=O`: 10%, 11% and 56%.
Regarding `CCCn1c(=O)c2[nH]c(-c3ccc(OCC(=O)Nc4cccnc4)cc3)cc2n(CCC)c1=O`, the inhibition on Adenosine receptor A2a was found to be 48%; in experiment [2], 19%; in experiment [1], 83%.
Consider `CCCn1c(=O)c2[nH]c(-c3ccc(OCC(=O)NCc4ccc(Cl)cc4)cc3)cc2n(C)c1=O`, for which the inhibition on Adenosine receptor A2a was 20%; in experiment [2] it was 33%; in experiment [1], 76%. For the same compound, at Adenosine receptor A2b, the Ki was 20.4 nM.
Regarding `CCCn1c(=O)c2[nH]c(-c3ccc(OC(C)(C)C(=O)O)cc3)cc2n(C)c1=O`, the results for the inhibition (on Adenosine receptor A2a; in experiment [2]; in experiment [1]) were 3%, 8% and 50%, respectively.
For the compound `CCCn1c(=O)c2[nH]c(-c3ccc(OC(C(=O)Nc4ccc(F)cc4)c4ccccc4)cc3)cc2n(CCC)c1=O` (stereo unspecified), the inhibition on Adenosine receptor A2a was 65%; in experiment [2] it was 32%; in experiment [1], 84%.
For `CC(Oc1ccc(-c2cc3c([nH]2)c(=O)n(C)c(=O)n3C)cc1)C(=O)O` (stereo unspecified) the same measures were 9%, 5% and 34%.
As to `CC(C)Cn1c(=O)c2[nH]c(-c3ccc(OCC(=O)Nc4ccccc4)cc3)cc2n(C)c1=O`, the inhibition turned out to be 2% on Adenosine receptor A2a, 15% in experiment [2] and 57% in experiment [1].
Consider `CCCn1c(=O)c2[nH]c(-c3ccc(OCC(=O)NC(CO)c4ccccc4)cc3)cc2n(CCC)c1=O` (stereo unspecified), for which the inhibition was found to be 53% at Adenosine receptor A2a, 30% in experiment [2] and 77% in experiment [1].
Consider `CCCn1c(=O)c2[nH]c(-c3ccc(OCC(=O)Nc4ccc(I)cc4)cc3)cc2n(C)c1=O`, for which the values for the inhibition (at Adenosine receptor A2a; in experiment [2]; in experiment [1]) were 24%, 51% and 97%, respectively. This compound also showed a Ki on Adenosine receptor A2b of 5.89 nM.
Regarding `CCCn1c(=O)c2[nH]c(-c3ccc(OCC(=O)NC(CCl)c4ccccc4)cc3)cc2n(CCC)c1=O` (stereo unspecified), the inhibition was 75% at Adenosine receptor A2a, 25% in experiment [2] and 74% in experiment [1].
Turning to `Cn1c(=O)c2[nH]c(-c3ccc(OCC(=O)Nc4cnccn4)cc3)cc2n(C)c1=O`, the inhibition on Adenosine receptor A2a is 20%; in experiment [2] it was 11%; in experiment [1] it was 44%.
Consider `COCCCn1c(=O)c2[nH]c(-c3ccc(OCC(=O)Nc4ccc(F)cc4)cc3)cc2n(CCCOC)c1=O`, for which the inhibition on Adenosine receptor A2a is 20%; in experiment [2], 24%; in experiment [1], 68%.
`CCCn1c(=O)c2[nH]c(-c3ccc(OCC(=O)O)cc3Cl)cc2n(CCC)c1=O`: the figures for the inhibition (at Adenosine receptor A2a; in experiment [2]; in experiment [1]) were 6%, 14% and 10%, respectively.
The matching figures for `CCCn1c(=O)c2[nH]c(-c3ccc(OCC(=O)Nc4ccc(F)cc4)cc3OC)cc2n(CCC)c1=O`: 43%, 16% and 27%.
For `CCCn1c(=O)c2[nH]c(-c3ccc(OCC(=O)Nc4ccc(Br)cc4)cc3Cl)cc2n(CCC)c1=O` the same measures were 31%, 17% and 79%.
Turning to `CCCn1c(=O)c2[nH]c(-c3ccc(OCC(=O)NC(C(=O)OC)c4ccccc4)cc3)cc2n(CCC)c1=O` (stereo unspecified), the inhibition on Adenosine receptor A2a amounted to 39%; in experiment [2] it was 29%; in experiment [1] it was 58%.
Turning to `COc1cc(-c2cc3c([nH]2)c(=O)n(C)c(=O)n3C)ccc1OCC(=O)O`, the inhibition was 5% at Adenosine receptor A2a and 15% in experiment [1]. On Adenosine receptor A2b, the Ki was 269 nM.
Take `CCCn1c(=O)c2[nH]c(-c3ccc(N(C=O)CC(=O)Nc4ccccc4)cc3)cc2n(CCC)c1=O`: the values for the inhibition (at Adenosine receptor A2a; in experiment [2]; in experiment [1]) were 61%, 10% and 46%, respectively.
For `O=C(O)COc1ccc(-c2cc3c([nH]2)c(=O)n(CC2CC2)c(=O)n3CC2CC2)cc1` the same measures were 40%, 27% and 69%.
For `Cn1c(=O)c2[nH]c(-c3ccc(OCC(=O)NCc4ccncc4)cc3)cc2n(C)c1=O` the same measures were 37%, 5% and 51%.
For `CCCn1c(=O)c2[nH]c(-c3ccc(OCC(=O)Nc4ncccc4C)cc3)cc2n(C)c1=O` the same measures were 26%, 25% and 68%.
Consider `COCCCn1c(=O)c2[nH]c(-c3ccc(OCC(=O)O)cc3)cc2n(CCCOC)c1=O`, for which the inhibition came out at 9% on Adenosine receptor A2a, 10% in experiment [2] and 12% in experiment [1].
With `CCCn1c(=O)c2[nH]c(-c3ccc(OCC(=O)OCC)cc3)cc2n(CCC)c1=O`, the figures for the inhibition (at Adenosine receptor A2a; in experiment [2]; in experiment [1]) were 21%, 9% and 55%, respectively.
